In the supplement of paper PMC10307832:

Tests used:
Assay in all cases: relative viability (nuclei count vs DMSO), 5 days (fraction); higher = more cells survive
BAM7 + Vorinostat = compound: CCOC1=CC=CC=C1N=NC2=C(NN(C2=O)C3=NC(=CS3)C4=CC=CC=C4)C [BAM7] + O=C(CCCCCCC(=O)Nc1ccccc1)NO [Vorinostat] (partner 1 µM)
Outline: (§1)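 After 5 days of treatment, lung cancer cells in 1536-well plates were fixed and stained in a single step (final 0.05% Triton X-100, 1% formaldehyde, 1 ug/ml Hoechst) and their nuclei counted on 4× images. Treatment had been applied by pin tool the day after seeding as one drug alone or as a fixed anchor-drug dose with five library-drug doses (not always all listed) in √10 steps. Relative viability is the nuclei count of treated wells divided by that of vehicle wells, and values are medians of duplicate plates.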

[1] = compound: CCn1c(-c2nonc2N)nc2c(C#CC(C)(C)O)ncc(OC[C@H]3CCCNC3)c21 + C[C@]1(O)C[C@@H](c2nc(-c3ccc4ccc(-c5ccccc5)nc4c3)c3c(N)nccn32)C1 [Linsitinib] (partner 1 µM)
Outline: as §1

[2] = compound: CCn1c(-c2nonc2N)nc2c(C#CC(C)(C)O)ncc(OC[C@H]3CCCNC3)c21 + O=C(c1cc(Cc2n[nH]c(=O)c3ccccc23)ccc1F)N1CCN(C(=O)C2CC2)CC1 [Olaparib] (partner 8 µM)
Outline: as §1

[3] = compound: CCn1c(-c2nonc2N)nc2c(C#CC(C)(C)O)ncc(OC[C@H]3CCCNC3)c21 + CCNC(=O)c1noc(-c2cc(C(C)C)c(O)cc2O)c1-c1ccc(CN2CCOCC2)cc1 [Luminespib] (partner 0.01 µM)
Outline: as §1

Row | Cell Line | relative viability (BAM7 + Vorinostat; first compound 0.5 µM) | relative viability (BAM7 + Vorinostat; first compound 5 µM) | relative viability (BAM7 + Vorinostat; first compound 15.81 µM) | relative viability (BAM7 + Vorinostat; first compound 50 µM) | relative viability ([1]; first compound 0.01 µM) | relative viability ([1]; first compound 0.03162 µM) | relative viability ([1]; first compound 0.1 µM) | relative viability ([1]; first compound 0.3162 µM) | relative viability ([1]; first compound 1 µM) | relative viability ([2]; first compound 0.01 µM) | relative viability ([2]; first compound 0.03162 µM) | relative viability ([2]; first compound 0.1 µM) | relative viability ([2]; first compound 0.3162 µM) | relative viability ([2]; first compound 1 µM) | relative viability ([3]; first compound 0.01 µM) | relative viability ([3]; first compound 0.03162 µM) | relative viability ([3]; first compound 0.1 µM) | relative viability ([3]; first compound 0.3162 µM) | relative viability ([3]; first compound 1 µM)
1 | NCI-H1993 | 0.723 | 0.765 | 0.71 | 0.696 | 0.774 | 0.736 | 0.758 | 0.731 | 0.767 | 1.14 | 1.13 | 0.963 | 0.943 | 0.985 | 0.84 | 0.728 | 0.739 | 0.645 | 0.686
2 | NCI-H322M | 0.884 | 0.868 | 1.05 | 0.913 | 0.976 | 0.988 | 0.942 | 0.89 | 0.909 | 0.779 | 0.71 | 0.693 | 0.749 | 0.831 | 0.784 | 0.847 | 0.855 | 0.665 | 0.682
3 | NCI-H838 | 0.741 | 0.776 | 0.723 | 0.673 | 1.03 | 1.05 | 1.02 | 0.991 | 0.975 | 0.74 | 0.838 | 0.804 | 0.726 | 0.76 | 0.309 | 0.308 | 0.296 | 0.227 | 0.304
4 | HARA | 0.333 | 0.767 | 0.304 | 0.439 | 0.861 | 0.961 | 0.973 | 0.947 | 1.11 | 0.909 | 0.903 | 0.808 | 0.687 | 0.763 | 0.942 | 0.222 | 0.666 | 0.585 | 0.603
5 | NCI-H2087 | 0.852 | 0.736 | 0.489 | 0.475 | 0.966 | 0.746 | 0.932 | 0.924 | 0.838 | 0.528 | – | 0.533 | 0.569 | 0.543 | 0.128 | 0.154 | 0.165 | 0.152 | 0.163
6 | NCI-H1437 | 0.734 | 0.669 | 0.616 | 0.677 | 0.948 | 1.05 | 1.04 | 1.01 | 0.956 | 0.633 | 0.648 | 0.64 | 0.605 | 0.625 | 1.07 | 1.13 | 1.21 | 1.09 | 1.17
7 | NCI-H650 | 0.541 | 0.531 | 0.518 | 0.492 | 0.714 | 0.79 | 0.959 | 0.766 | 0.789 | 0.387 | 0.43 | 0.435 | 0.371 | 0.392 | 0.736 | 0.835 | 0.814 | 0.791 | 0.818
8 | COR-L23 | 0.434 | 0.379 | 0.433 | 0.52 | 0.891 | 0.946 | 0.884 | 0.805 | 0.829 | 0.329 | 0.429 | 0.357 | 0.379 | 0.376 | 0.669 | 0.642 | 0.696 | 0.57 | 0.568
9 | COR-L 105 | 0.889 | 0.952 | 0.895 | 0.906 | 1.1 | 0.848 | 1.29 | 0.747 | 0.81 | 0.658 | 0.759 | 0.689 | 0.696 | 1.19 | 0.621 | 0.868 | 0.709 | 0.775 | 0.923
10 | LK-2 | 0.341 | 0.346 | 0.343 | 0.353 | 0.7 | 0.715 | 0.422 | 0.746 | 0.559 | 0.641 | 0.566 | 0.645 | 0.865 | 0.72 | 0.168 | 0.177 | – | – | 0.14
11 | 201T | 0.797 | 0.78 | 0.716 | 0.71 | 1.05 | 1.1 | 0.986 | 1.03 | 1.02 | 0.855 | 0.861 | 0.838 | 0.801 | 0.827 | 1.04 | 1.03 | 1.02 | 1.03 | 1.03
12 | HCC-44 | 1.02 | 1.11 | 1.04 | 1.07 | 0.608 | 0.692 | 0.636 | 0.652 | 0.71 | 0.995 | 1.02 | 0.977 | 0.955 | 0.994 | – | – | 0.994 | 0.906 | 1.21
13 | NCI-H596 | 0.646 | 0.716 | 0.558 | 0.7 | 0.993 | 1.08 | 0.931 | 1.03 | 1.03 | 0.682 | – | 0.72 | 0.697 | 0.871 | 1.06 | 1.13 | 1.17 | 0.935 | 1.13
14 | H3255 | 0.819 | 0.763 | 0.733 | 0.811 | 0.958 | 1.09 | 0.903 | 0.888 | 0.843 | 0.571 | 0.59 | 0.638 | 0.483 | 0.564 | 0.84 | 0.754 | 0.838 | 0.771 | 0.958
15 | NCI-H647 | 0.4 | 0.532 | 0.556 | 0.712 | 1.25 | 1.36 | 1.21 | 1.16 | 1.01 | 0.467 | 0.775 | 0.486 | 0.561 | 0.517 | 0.327 | 0.177 | 0.203 | 0.127 | 0.193
16 | NCI-H2023 | 0.635 | 0.577 | 0.605 | 0.589 | 0.683 | 0.664 | 0.708 | 0.446 | 0.569 | 0.501 | 0.454 | 0.437 | 0.381 | 0.475 | 0.636 | 0.981 | 0.664 | 0.67 | 0.498
17 | NCI-H23 | 0.559 | 0.674 | 0.629 | 0.792 | 0.542 | 0.722 | 0.619 | 0.491 | 0.611 | 0.294 | 0.275 | 0.269 | 0.309 | 0.313 | 0.235 | 0.202 | 0.242 | 0.219 | 0.237
